Measured values: US10975116B2, “Methods of treating and preventing gastrointestinal motility disorders using aminosterols” (Enterin, Inc., priority 2013, dated 2021)

Test system: mesenteric nerve
Test: Mesenteric nerve multiunit recording after intraluminal squalamine in colon
Type: in vivo, mouse
Description: Under appropriate and approved anesthesia, the distal colon of a mouse was externalized from the abdomen, along with the mesentary. The mesenteric blood vessels and lymphatics were carefully dissected from the mesenteric nerve, a structure that contains both the vagus (efferent and afferent) and spinal afferents. The nerve was cut, and the free end (which receives signals from the gut) was introduced into a capillary housing a silver electrode, along with the appropriate electronics required to detect and amplify weak electrical signals pulsing from the gut through the mesenteric nerve. […] Concentrations of 3, 10, 30 and 100 μM squalamine were evaluated. Responses to squalamine application were discernible at 30 μM but robust and reproducible responses were first evident at 100 μM. […] Paired experiments were comparisons of average discharge rates of a control recording period with a three-minute period during the peak response to squalamine. Statistical comparisons were made using paired t-tests. Squalamine increased the background firing rate from (mean±SD) 2.0±1.2 to 5.2±3.1 Hz (P=0.03). The latency to the onset of the firing increase was 4.4±4.1 min, while the latency to peak of the firing rate increase 12±7.5 min (FIG. 1).

[1] = 100 μM intraluminal, 5 experiments
[2] = intraluminal, 3, 10, 30 and 100 μM evaluated

squalamine
latency to peak of the firing rate increase [1]: 12 ± 7.5 min | latency to the onset of the firing increase [1]: 4.4 ± 4.1 min | mesenteric nerve multiunit firing rate at peak response (mean±SD) (100 μM intraluminal, 5 experiments, background 2.0±1.2 Hz, P=0.03): 5.2±3.1 Hz | effect on mesenteric nerve firing frequency (FIGS. 1A-1C) (intraluminal squalamine): increases mesenteric nerve firing frequency | concentration at which responses were discernible [2]: 30 µM | concentration at which robust and reproducible responses were first evident [2]: 100 µM
